Where “and” joins values, the source holds several entries; their conditions need not be identical. Identical values can stand only once. Records with an inconclusive call do not appear.
Test system: CD8F1 mice, subcutaneous mammary adenocarcinoma, T/C%
Test: NCI In Vivo Anticancer Drug Screen. Data for tumor model Mammary Adenocarcinoma CD8F1 (subcutaneous) in CD8F1
Details: higher = larger tumour
In short: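 Transplantable tumors were established in mice, animals were dosed with compound or vehicle, and survival or tumor size was then measured in both groups. The treated result was divided by the control result.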

[1] = endpoint: median tumor weight (est.), dose: 12.5 mg/kg/injection, schedule: Q07DX005 (ip), vehicle: saline with Tween-80
[2] = endpoint: median tumor weight (est.), dose: 25.0 mg/kg/injection, schedule: Q07DX005 (ip), vehicle: saline with Tween-80
[3] = endpoint: median tumor weight (est.), dose: 100.0 mg/kg/injection, schedule: Q07DX005 (ip), vehicle: saline with Tween-80
[4] = endpoint: median tumor weight (est.), dose: 200.0 mg/kg/injection, schedule: Q07DX005 (ip), vehicle: saline with Tween-80
[5] = endpoint: median tumor weight (est.), dose: 400.0 mg/kg/injection, schedule: Q07DX005 (ip), vehicle: saline with Tween-80
[6] = endpoint: median tumor weight change, dose: 125.0 mg/kg/injection, schedule: Q01DX001 (ip), vehicle: saline with Tween-80
[7] = endpoint: median tumor weight (est.), dose: 50.0 mg/kg/injection, schedule: Q07DX005 (ip), vehicle: saline with Tween-80
[8] = endpoint: median tumor weight change, dose: 500.0 mg/kg/injection, schedule: Q01DX001 (ip), vehicle: saline with Tween-80
[9] = endpoint: median tumor weight (est.), dose: 4.0 mg/kg/injection, schedule: Q07DX005 (ip), vehicle: saline
[10] = endpoint: median tumor weight (est.), dose: 8.0 mg/kg/injection, schedule: Q07DX005 (ip), vehicle: saline
[11] = endpoint: median tumor weight (est.), dose: 25.0 mg/kg/injection, schedule: Q07DX005 (ip), vehicle: Klucel (hydroxypropylcellulose) (HPC)
[12] = endpoint: median tumor weight (est.), dose: 32.0 mg/kg/injection, schedule: Q07DX005 (ip), vehicle: Klucel (hydroxypropylcellulose) (HPC)

ClC(Cl)(Cl)C1=NCc2nnn(Cc3ccccc3)c2N1
T/C [1]: 102 % of control
T/C [2]: 66 % of control
T/C [3]: 191 % of control
T/C [4]: 107 % of control
T/C [5]: 96 % of control

Cc1c2cc[n+](C)cc2c(C)c2c1[nH]c1ccc(O)cc12
T/C (endpoint: median tumor weight change, dose: 0.62 mg/kg/injection, schedule: Q01DX001 (ip), vehicle: saline): 101 % of control
T/C (endpoint: median tumor weight change, dose: 1.25 mg/kg/injection, schedule: Q01DX001 (ip), vehicle: saline): 67 % of control
T/C (endpoint: median tumor weight change, dose: 2.5 mg/kg/injection, schedule: Q01DX001 (ip), vehicle: saline): 60 % of control

NC(C(=O)O)c1ccc(CBr)cc1 (stereo unspecified)
T/C [6]: 106 % of control

CCOC(=O)C1(c2ccccc2)C(=O)Oc2ccccc21 (stereo unspecified)
T/C [1]: 84 % of control
T/C [2]: 69 % of control
T/C [7]: 97 % of control
T/C [3]: 119 % of control
T/C [4]: 113 % of control
T/C [5]: 70 % of control
T/C [6]: 82 % of control
T/C [8]: 71 % of control
T/C (endpoint: median tumor weight change, dose: 1000.0 mg/kg/injection, schedule: Q01DX001 (ip), vehicle: saline with Tween-80): 61 % of control
T/C (endpoint: median tumor weight change, dose: 2000.0 mg/kg/injection, schedule: Q01DX001 (ip), vehicle: saline with Tween-80): 100 % of control

CN(CO)c1nc(N(C)CO)nc(N(C)CO)n1
T/C (endpoint: median tumor weight (est.), dose: 0.5 mg/kg/injection, schedule: Q07DX005 (ip), vehicle: saline): 56 % of control
T/C (endpoint: median tumor weight (est.), dose: 1.0 mg/kg/injection, schedule: Q07DX005 (ip), vehicle: saline): 78 % of control
T/C (endpoint: median tumor weight (est.), dose: 2.0 mg/kg/injection, schedule: Q07DX005 (ip), vehicle: saline): 110 % of control
T/C [9]: 48 % of control
T/C (endpoint: median tumor weight (est.), dose: 6.25 mg/kg/injection, schedule: Q07DX005 (ip), vehicle: saline with Tween-80): 92 % of control
T/C [10]: 46 % of control
T/C [1]: 116 % of control
T/C (endpoint: median tumor weight (est.), dose: 12.5 mg/kg/injection, schedule: Q07DX006 (ip), vehicle: saline): 288 % of control
T/C (endpoint: median tumor weight (est.), dose: 16.0 mg/kg/injection, schedule: Q07DX005 (ip), vehicle: saline): 14 % of control
T/C (endpoint: median tumor weight (est.), dose: 25.0 mg/kg/injection, schedule: Q07DX006 (ip), vehicle: saline): 42 % of control
T/C [7]: 94 % of control
T/C (endpoint: median tumor weight (est.), dose: 50.0 mg/kg/injection, schedule: Q07DX006 (ip), vehicle: saline): 40 % of control
T/C [3]: 25 % of control
T/C (endpoint: median tumor weight (est.), dose: 100.0 mg/kg/injection, schedule: Q07DX006 (ip), vehicle: saline): 35 % of control
T/C [4]: 31 % of control
T/C (endpoint: median tumor weight (est.), dose: 200.0 mg/kg/injection, schedule: Q07DX006 (ip), vehicle: saline): 5 % of control

C[C@]12CC[C@@H]3c4ccc(O)cc4CC[C@H]3[C@@H]1CC[C@@H]2O
T/C (endpoint: median tumor weight (est.), dose: 6.25 mg/kg/injection, schedule: Q07DX005 (ip), vehicle: Klucel (hydroxypropylcellulose) (HPC)): 97 % of control
T/C [11]: 27 % of control

NC(CSC(c1ccccc1)(c1ccccc1)c1ccccc1)C(=O)O (stereo unspecified)
T/C [12]: 101 % of control
T/C (endpoint: median tumor weight (est.), dose: 64.0 mg/kg/injection, schedule: Q07DX005 (ip), vehicle: Klucel (hydroxypropylcellulose) (HPC)): 71 % of control
T/C (endpoint: median tumor weight (est.), dose: 128.0 mg/kg/injection, schedule: Q07DX005 (ip), vehicle: Klucel (hydroxypropylcellulose) (HPC)): 74 % of control

[Na+]
T/C (endpoint: median tumor weight change, dose: 75.0 mg/kg/injection, schedule: Q01DX001 (ip), vehicle: water): 68 % of control
T/C (endpoint: median tumor weight change, dose: 150.0 mg/kg/injection, schedule: Q01DX001 (ip), vehicle: water): 93 % of control
T/C (endpoint: median tumor weight change, dose: 300.0 mg/kg/injection, schedule: Q01DX001 (ip), vehicle: water): 66 % of control
T/C (endpoint: median tumor weight change, dose: 600.0 mg/kg/injection, schedule: Q01DX001 (ip), vehicle: water): 85 % of control
T/C (endpoint: median tumor weight change, dose: 1200.0 mg/kg/injection, schedule: Q01DX001 (ip), vehicle: water): 67 % of control

N/C(=N\O)c1cn(C2OC(CO)C(O)C2O)c2ncnc(N)c12 (stereo unspecified)
T/C [9]: 100 % of control
T/C [10]: 112 % of control

C1OCN2CSCC12 (stereo unspecified)
T/C [6]: 90 % of control
T/C (endpoint: median tumor weight change, dose: 250.0 mg/kg/injection, schedule: Q01DX001 (ip), vehicle: saline with Tween-80): 71 % of control
T/C [8]: 82 % of control

COc1cc(NS(C)(=O)=O)ccc1Nc1c2ccccc2nc2ccccc12
T/C (endpoint: mean tumor weight (est.), dose: 4.0 mg/kg/injection, schedule: Q07DX004 (ip), vehicle: saline): 158 % of control
T/C (endpoint: mean tumor weight (est.), dose: 8.0 mg/kg/injection, schedule: Q07DX004 (ip), vehicle: saline): 120 % of control
T/C (endpoint: mean tumor weight (est.), dose: 16.0 mg/kg/injection, schedule: Q07DX004 (ip), vehicle: saline): 109 % of control
T/C (endpoint: mean tumor weight (est.), dose: 32.0 mg/kg/injection, schedule: Q07DX004 (ip), vehicle: saline): 79 % of control
T/C (endpoint: mean tumor weight, dose: 2.0 mg/kg/injection, schedule: Q05DX005 (ip), vehicle: saline): 66 % of control
T/C (endpoint: mean tumor weight, dose: 4.0 mg/kg/injection, schedule: Q05DX005 (ip), vehicle: saline): 82 % of control
T/C (endpoint: mean tumor weight, dose: 4.0 mg/kg/injection, schedule: Q07DX004 (ip), vehicle: saline): 51 % of control
T/C (endpoint: mean tumor weight, dose: 8.0 mg/kg/injection, schedule: Q05DX005 (ip), vehicle: saline): 62 % of control
T/C (endpoint: mean tumor weight, dose: 8.0 mg/kg/injection, schedule: Q07DX004 (ip), vehicle: saline): 28 % of control
T/C (endpoint: mean tumor weight, dose: 16.0 mg/kg/injection, schedule: Q05DX005 (ip), vehicle: saline): 39 % of control
T/C (endpoint: mean tumor weight, dose: 16.0 mg/kg/injection, schedule: Q07DX004 (ip), vehicle: saline): 23 % of control
T/C (endpoint: mean tumor weight, dose: 32.0 mg/kg/injection, schedule: Q07DX004 (ip), vehicle: saline): 18 % of control
T/C (endpoint: median tumor weight (est.), dose: 1.0 mg/kg/injection, schedule: Q01DX005 (ip), vehicle: Klucel (hydroxypropylcellulose) (HPC)): 73 % of control
T/C (endpoint: median tumor weight (est.), dose: 2.0 mg/kg/injection, schedule: Q01DX005 (ip), vehicle: Klucel (hydroxypropylcellulose) (HPC)): 94 % of control
T/C (endpoint: median tumor weight (est.), dose: 2.0 mg/kg/injection, schedule: Q07DX005 (ip), vehicle: Klucel (hydroxypropylcellulose) (HPC)): 195 % of control
T/C (endpoint: median tumor weight (est.), dose: 4.0 mg/kg/injection, schedule: Q01DX005 (ip), vehicle: Klucel (hydroxypropylcellulose) (HPC)): 80 % of control
T/C (endpoint: median tumor weight (est.), dose: 4.0 mg/kg/injection, schedule: Q04DX005 (ip), vehicle: Klucel (hydroxypropylcellulose) (HPC)): 119 % of control
T/C (endpoint: median tumor weight (est.), dose: 4.0 mg/kg/injection, schedule: Q07DX005 (ip), vehicle: Klucel (hydroxypropylcellulose) (HPC)): 42 % of control and 65 % of control
T/C (endpoint: median tumor weight (est.), dose: 8.0 mg/kg/injection, schedule: Q01DX005 (ip), vehicle: Klucel (hydroxypropylcellulose) (HPC)): 59 % of control
T/C (endpoint: median tumor weight (est.), dose: 8.0 mg/kg/injection, schedule: Q04DX005 (ip), vehicle: Klucel (hydroxypropylcellulose) (HPC)): 35 % of control
T/C (endpoint: median tumor weight (est.), dose: 16.0 mg/kg/injection, schedule: Q01DX001 (ip), vehicle: Klucel (hydroxypropylcellulose) (HPC)): 93 % of control
T/C (endpoint: median tumor weight (est.), dose: 16.0 mg/kg/injection, schedule: Q01DX005 (ip), vehicle: Klucel (hydroxypropylcellulose) (HPC)): 38 % of control
T/C (endpoint: median tumor weight (est.), dose: 16.0 mg/kg/injection, schedule: Q04DX005 (ip), vehicle: Klucel (hydroxypropylcellulose) (HPC)): 17 % of control
T/C (endpoint: median tumor weight (est.), dose: 32.0 mg/kg/injection, schedule: Q01DX001 (ip), vehicle: Klucel (hydroxypropylcellulose) (HPC)): 35 % of control
T/C [12]: 3 % of control and 10 % of control
T/C (endpoint: median tumor weight (est.), dose: 64.0 mg/kg/injection, schedule: Q01DX001 (ip), vehicle: Klucel (hydroxypropylcellulose) (HPC)): 39 % of control

O=C(O)c1c2c(nc3ccccc13)Cc1ccccc1-2
T/C (endpoint: median tumor weight (est.), dose: 12.5 mg/kg/injection, schedule: Q07DX005 (ip), vehicle: Klucel (hydroxypropylcellulose) (HPC)): 96 % of control
T/C (endpoint: median tumor weight (est.), dose: 12.5 mg/kg/injection, schedule: Q07DX005 (ip), vehicle: water): 6 % of control
T/C [11]: 119 % of control
T/C (endpoint: median tumor weight (est.), dose: 25.0 mg/kg/injection, schedule: Q07DX005 (ip), vehicle: water): 89 % of control
T/C (endpoint: median tumor weight (est.), dose: 50.0 mg/kg/injection, schedule: Q07DX005 (ip), vehicle: Klucel (hydroxypropylcellulose) (HPC)): 98 % of control
T/C (endpoint: median tumor weight (est.), dose: 50.0 mg/kg/injection, schedule: Q07DX005 (ip), vehicle: water): 59 % of control
T/C (endpoint: median tumor weight (est.), dose: 100.0 mg/kg/injection, schedule: Q07DX005 (ip), vehicle: Klucel (hydroxypropylcellulose) (HPC)): 97 % of control
T/C (endpoint: median tumor weight (est.), dose: 100.0 mg/kg/injection, schedule: Q07DX005 (ip), vehicle: water): 87 % of control
T/C (endpoint: median tumor weight (est.), dose: 200.0 mg/kg/injection, schedule: Q07DX005 (ip), vehicle: Klucel (hydroxypropylcellulose) (HPC)): 57 % of control
T/C (endpoint: median tumor weight (est.), dose: 200.0 mg/kg/injection, schedule: Q07DX005 (ip), vehicle: water): 60 % of control

From PubChem BioAssay AID220 (DTP/NCI, 2004)
